The values that follow come from patent publication US20240400577A1, “MODULATORS OF PROTEIN KINASES” (VIBLIOME THERAPEUTICS, LLC, priority 2021, published 2024).

Common to all, as to assay: Kinase panel enzymatic inhibition assay (Nanosyn)
Common to all, as to assay type: biochemical
Holding throughout (settings): compound 5 μM; ATP at Km; 30-minute pre-incubation

Assay [1] concerns the target T1, BRAF (Homo sapiens, UniProt P15056).
T1 construct: purchased Nanosyn (contract screening)
The method, boiled down:
(§1)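 Read-out is percent inhibition or IC50, obtained by mobility shift, ADP detection or time-resolved fluorescence detection. Each kinase was run with ATP at its Km, and compound at 5 μM was pre-incubated for 30 minutes.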

The target of assay [2] is T2, LYNb (Homo sapiens, UniProt P07948).
T2 construct: purchased Nanosyn (contract screening)
A digest of the protocol: as §1

Assay [3] deals with T3, ZAK (Homo sapiens, UniProt Q9NYL2).
T3 construct: Nanosyn (contract laboratory that ran the panel)
T3 sequence (Q9NYL2 whole entry): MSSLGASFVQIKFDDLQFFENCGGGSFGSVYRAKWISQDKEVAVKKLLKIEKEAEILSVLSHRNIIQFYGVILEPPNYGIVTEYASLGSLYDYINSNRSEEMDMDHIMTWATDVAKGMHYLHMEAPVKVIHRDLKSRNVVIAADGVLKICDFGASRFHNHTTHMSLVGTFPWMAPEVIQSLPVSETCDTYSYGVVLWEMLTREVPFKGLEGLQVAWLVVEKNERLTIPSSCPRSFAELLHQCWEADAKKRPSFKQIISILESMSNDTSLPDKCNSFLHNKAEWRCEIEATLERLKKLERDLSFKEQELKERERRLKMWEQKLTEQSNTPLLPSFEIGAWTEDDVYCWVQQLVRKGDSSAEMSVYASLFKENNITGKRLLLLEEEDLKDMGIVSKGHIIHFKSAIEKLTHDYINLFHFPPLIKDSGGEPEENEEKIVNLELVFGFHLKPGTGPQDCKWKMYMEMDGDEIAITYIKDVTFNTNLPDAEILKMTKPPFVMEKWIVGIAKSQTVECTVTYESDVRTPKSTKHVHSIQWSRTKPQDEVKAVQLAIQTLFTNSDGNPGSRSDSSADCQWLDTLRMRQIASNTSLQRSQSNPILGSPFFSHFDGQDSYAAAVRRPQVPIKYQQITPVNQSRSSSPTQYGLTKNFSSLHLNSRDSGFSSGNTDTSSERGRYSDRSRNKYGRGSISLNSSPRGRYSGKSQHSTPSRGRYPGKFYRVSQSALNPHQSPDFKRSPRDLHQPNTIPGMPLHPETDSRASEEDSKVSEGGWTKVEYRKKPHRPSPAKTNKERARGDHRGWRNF
A digest of the protocol: as §1

The target of assay [4] is T4, PDGFRb (Homo sapiens, UniProt P09619).
T4 construct: Nanosyn (contract laboratory that ran the panel)
The method, boiled down:
as §1

Assay [5] has as its target T5, ARAF (Homo sapiens, UniProt P10398).
T5 construct: purchased Nanosyn (contract screening)
T5 sequence (P10398 1-606): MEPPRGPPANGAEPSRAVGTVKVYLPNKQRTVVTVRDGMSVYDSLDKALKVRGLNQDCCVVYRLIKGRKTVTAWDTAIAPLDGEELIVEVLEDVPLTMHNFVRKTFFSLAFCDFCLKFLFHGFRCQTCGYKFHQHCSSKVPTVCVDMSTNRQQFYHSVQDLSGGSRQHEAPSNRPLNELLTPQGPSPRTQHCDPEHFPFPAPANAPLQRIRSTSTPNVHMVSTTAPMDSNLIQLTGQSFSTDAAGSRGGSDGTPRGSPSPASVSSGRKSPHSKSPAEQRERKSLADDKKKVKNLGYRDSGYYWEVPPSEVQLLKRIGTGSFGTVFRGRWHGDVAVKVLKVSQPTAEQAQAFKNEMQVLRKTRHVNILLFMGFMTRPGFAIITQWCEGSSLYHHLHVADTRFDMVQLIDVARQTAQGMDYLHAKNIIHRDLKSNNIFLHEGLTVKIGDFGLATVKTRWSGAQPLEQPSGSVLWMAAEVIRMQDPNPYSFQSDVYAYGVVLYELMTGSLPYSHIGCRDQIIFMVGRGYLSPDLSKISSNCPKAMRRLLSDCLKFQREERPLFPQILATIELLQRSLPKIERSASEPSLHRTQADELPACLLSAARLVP
A digest of the protocol: as §1

For assay [6], the target named is T6, CSF1R (Homo sapiens, UniProt P07333).
T6 construct: purchased Nanosyn (contract screening)
A digest of the protocol: as §1

In assay [7] the target is T7, DDR1 (Homo sapiens, UniProt Q08345).
T7 construct: purchased Nanosyn (contract screening)
The method, boiled down: as §1

In assay [8] the target is T8, p38b (Homo sapiens, UniProt Q15759).
T8 construct: Nanosyn (contract laboratory that ran the panel)
T8 sequence (Q15759 whole entry): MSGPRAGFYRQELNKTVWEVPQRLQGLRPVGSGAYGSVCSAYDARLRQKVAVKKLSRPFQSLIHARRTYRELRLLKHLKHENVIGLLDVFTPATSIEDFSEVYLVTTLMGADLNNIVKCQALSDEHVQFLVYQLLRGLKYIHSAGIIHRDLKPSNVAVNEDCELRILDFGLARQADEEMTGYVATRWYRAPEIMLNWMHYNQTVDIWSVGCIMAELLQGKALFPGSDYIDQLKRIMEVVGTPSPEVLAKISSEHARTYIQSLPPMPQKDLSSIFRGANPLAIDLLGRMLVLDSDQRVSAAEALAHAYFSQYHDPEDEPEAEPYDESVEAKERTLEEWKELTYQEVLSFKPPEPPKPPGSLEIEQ
The method, boiled down: as §1

In assay [9] the target is T9, BRK (Homo sapiens, UniProt Q13882).
T9 construct: purchased Nanosyn (contract screening)
T9 sequence (Q13882 whole entry): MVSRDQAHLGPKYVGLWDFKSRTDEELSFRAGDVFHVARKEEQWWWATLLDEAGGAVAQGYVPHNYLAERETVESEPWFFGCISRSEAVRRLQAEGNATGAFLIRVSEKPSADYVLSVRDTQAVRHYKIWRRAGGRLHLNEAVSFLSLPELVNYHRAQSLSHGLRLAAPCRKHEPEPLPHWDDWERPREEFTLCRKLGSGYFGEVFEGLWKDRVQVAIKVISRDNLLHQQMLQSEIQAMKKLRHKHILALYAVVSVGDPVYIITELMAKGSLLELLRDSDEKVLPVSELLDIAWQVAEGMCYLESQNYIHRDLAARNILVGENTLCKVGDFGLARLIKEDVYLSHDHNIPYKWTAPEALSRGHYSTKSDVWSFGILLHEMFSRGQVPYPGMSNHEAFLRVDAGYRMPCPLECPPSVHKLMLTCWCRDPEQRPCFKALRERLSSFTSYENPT
A digest of the protocol: as §1

For assay [10], the target named is T10, YES (Homo sapiens, UniProt P07947).
T10 construct: Nanosyn (contract laboratory that ran the panel)
T10 sequence (P07947 whole entry): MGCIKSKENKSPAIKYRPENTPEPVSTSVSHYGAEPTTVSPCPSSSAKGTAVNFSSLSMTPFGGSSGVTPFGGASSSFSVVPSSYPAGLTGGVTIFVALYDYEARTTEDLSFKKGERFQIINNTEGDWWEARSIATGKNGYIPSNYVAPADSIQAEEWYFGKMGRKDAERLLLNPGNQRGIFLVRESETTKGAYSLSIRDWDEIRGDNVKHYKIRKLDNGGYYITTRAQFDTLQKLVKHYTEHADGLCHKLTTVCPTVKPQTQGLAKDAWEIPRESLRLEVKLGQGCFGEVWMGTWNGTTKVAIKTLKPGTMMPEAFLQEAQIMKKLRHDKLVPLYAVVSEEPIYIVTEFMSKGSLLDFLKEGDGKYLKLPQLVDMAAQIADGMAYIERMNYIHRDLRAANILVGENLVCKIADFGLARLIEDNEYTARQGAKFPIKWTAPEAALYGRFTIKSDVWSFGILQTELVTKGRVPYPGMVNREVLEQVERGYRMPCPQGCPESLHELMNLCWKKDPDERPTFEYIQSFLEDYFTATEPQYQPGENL
The method, boiled down:
as §1

The target of assay [11] is T11, TNIK (Homo sapiens, UniProt Q9UKE5).
T11 construct: Nanosyn (contract laboratory that ran the panel)
A digest of the protocol: as §1

In assay [12] the target is T12, MNK2 (Homo sapiens, UniProt Q9HBH9).
T12 construct: Nanosyn (contract laboratory that ran the panel)
T12 sequence (Q9HBH9 whole entry): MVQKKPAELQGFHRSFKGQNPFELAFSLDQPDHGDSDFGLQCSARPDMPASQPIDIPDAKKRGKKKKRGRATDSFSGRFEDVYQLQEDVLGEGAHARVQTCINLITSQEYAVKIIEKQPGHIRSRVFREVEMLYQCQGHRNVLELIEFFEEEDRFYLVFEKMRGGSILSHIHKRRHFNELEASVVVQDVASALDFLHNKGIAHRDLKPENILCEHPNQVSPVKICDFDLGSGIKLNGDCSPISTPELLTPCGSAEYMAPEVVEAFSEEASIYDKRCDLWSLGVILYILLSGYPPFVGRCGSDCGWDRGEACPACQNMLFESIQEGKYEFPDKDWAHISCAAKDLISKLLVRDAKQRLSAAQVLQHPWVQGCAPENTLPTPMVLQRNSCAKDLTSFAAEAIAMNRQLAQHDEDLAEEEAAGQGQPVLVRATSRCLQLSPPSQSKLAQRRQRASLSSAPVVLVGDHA
The method, boiled down: as §1

For assay [13], the target named is T13, RET (Homo sapiens, UniProt P07949).
T13 construct: Nanosyn (contract laboratory that ran the panel)
The method, boiled down:
as §1

The target of assay [14] is T14, KIT (Homo sapiens, UniProt P10721).
T14 construct: purchased Nanosyn (contract screening)
A digest of the protocol:
as §1

Assay [15] addresses T15, p38a (Homo sapiens, UniProt Q16539).
T15 construct: Nanosyn (contract laboratory that ran the panel)
A digest of the protocol: as §1

Assay [16] addresses T16, PKCb1 (Homo sapiens, UniProt P05771).
T16 construct: Nanosyn (contract laboratory that ran the panel)
The method, boiled down: as §1

In assay [17] the target is T17, SRC (Homo sapiens, UniProt P12931).
T17 construct: Nanosyn (contract laboratory that ran the panel)
T17 sequence (P12931 whole entry): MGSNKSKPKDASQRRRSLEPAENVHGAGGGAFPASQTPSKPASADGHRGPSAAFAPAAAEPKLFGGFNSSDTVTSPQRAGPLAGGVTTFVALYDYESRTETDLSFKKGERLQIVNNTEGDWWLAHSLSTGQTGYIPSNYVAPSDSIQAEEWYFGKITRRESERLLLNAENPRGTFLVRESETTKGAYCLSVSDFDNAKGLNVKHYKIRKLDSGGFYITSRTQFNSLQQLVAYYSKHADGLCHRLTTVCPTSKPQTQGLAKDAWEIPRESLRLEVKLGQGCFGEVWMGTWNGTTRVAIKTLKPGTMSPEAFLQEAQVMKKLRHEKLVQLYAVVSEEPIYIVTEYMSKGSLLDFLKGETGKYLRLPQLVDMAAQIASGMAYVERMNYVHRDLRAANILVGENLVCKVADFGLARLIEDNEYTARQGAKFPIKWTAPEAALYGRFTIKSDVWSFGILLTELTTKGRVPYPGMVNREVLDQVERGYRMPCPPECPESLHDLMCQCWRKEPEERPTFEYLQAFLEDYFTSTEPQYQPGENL
The method, boiled down:
as §1

For assay [18], the target named is T18, KDR (Homo sapiens, UniProt P35968).
T18 construct: purchased Nanosyn (contract screening)
T18 sequence (P35968 20-1356): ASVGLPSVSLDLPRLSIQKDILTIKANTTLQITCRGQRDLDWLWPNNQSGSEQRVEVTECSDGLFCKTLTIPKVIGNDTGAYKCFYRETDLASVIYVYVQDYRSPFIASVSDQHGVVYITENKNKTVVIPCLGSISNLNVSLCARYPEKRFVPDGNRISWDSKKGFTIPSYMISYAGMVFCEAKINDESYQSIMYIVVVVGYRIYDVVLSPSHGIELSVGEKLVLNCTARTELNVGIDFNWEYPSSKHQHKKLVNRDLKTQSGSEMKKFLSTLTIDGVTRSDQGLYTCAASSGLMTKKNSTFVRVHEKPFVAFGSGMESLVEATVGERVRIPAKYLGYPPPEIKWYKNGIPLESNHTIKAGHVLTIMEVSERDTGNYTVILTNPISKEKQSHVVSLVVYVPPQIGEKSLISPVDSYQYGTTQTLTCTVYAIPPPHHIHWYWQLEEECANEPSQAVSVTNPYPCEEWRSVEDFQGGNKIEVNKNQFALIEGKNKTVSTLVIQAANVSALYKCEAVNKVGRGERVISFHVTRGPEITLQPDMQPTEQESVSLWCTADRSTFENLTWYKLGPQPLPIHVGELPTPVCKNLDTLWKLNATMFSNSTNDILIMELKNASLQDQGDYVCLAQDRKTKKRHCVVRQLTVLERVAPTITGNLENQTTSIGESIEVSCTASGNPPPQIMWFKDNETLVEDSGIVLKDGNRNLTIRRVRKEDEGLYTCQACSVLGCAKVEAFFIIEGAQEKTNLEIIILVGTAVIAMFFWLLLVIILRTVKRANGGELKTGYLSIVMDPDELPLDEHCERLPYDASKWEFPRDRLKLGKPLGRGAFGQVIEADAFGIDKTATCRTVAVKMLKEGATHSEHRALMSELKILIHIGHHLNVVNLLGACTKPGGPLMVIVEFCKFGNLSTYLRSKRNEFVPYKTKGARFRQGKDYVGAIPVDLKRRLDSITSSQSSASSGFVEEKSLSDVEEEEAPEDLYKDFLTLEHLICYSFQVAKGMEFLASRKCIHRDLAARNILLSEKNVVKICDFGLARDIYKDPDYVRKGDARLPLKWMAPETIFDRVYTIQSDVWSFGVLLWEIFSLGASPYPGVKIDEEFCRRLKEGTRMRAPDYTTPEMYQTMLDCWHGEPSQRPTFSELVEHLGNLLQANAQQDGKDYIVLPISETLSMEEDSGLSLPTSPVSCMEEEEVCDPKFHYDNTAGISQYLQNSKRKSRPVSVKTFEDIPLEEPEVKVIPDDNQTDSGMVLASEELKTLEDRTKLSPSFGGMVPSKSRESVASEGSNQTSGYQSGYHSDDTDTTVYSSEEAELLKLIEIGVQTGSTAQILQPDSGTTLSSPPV
A digest of the protocol:
as §1

The target of assay [19] is T19, FGR (Homo sapiens, UniProt P09769).
T19 construct: purchased Nanosyn (contract screening)
The method, boiled down: as §1

Assay [20] addresses T20, SGK2 (Homo sapiens, UniProt Q9HBY8).
T20 construct: Nanosyn (contract laboratory that ran the panel)
T20 sequence (Q9HBY8 1-367): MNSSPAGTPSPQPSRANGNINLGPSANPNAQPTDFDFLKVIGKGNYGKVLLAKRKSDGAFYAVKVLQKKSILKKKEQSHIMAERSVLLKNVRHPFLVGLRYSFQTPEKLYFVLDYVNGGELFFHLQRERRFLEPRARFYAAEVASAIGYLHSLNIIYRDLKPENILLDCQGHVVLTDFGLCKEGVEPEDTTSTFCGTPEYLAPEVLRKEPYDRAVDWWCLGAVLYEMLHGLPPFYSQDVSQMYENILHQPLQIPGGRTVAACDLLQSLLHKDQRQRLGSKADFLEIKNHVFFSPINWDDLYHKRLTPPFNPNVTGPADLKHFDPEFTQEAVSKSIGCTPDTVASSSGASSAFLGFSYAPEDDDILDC
A digest of the protocol: as §1

Assay [21] concerns the target T21, LCK (Homo sapiens, UniProt P06239).
T21 construct: purchased Nanosyn (contract screening)
The method, boiled down:
as §1

SMILES strings stand for the structures. Where only a bound is given, the exact number is not on record here.

T21 sequence (P06239 whole entry): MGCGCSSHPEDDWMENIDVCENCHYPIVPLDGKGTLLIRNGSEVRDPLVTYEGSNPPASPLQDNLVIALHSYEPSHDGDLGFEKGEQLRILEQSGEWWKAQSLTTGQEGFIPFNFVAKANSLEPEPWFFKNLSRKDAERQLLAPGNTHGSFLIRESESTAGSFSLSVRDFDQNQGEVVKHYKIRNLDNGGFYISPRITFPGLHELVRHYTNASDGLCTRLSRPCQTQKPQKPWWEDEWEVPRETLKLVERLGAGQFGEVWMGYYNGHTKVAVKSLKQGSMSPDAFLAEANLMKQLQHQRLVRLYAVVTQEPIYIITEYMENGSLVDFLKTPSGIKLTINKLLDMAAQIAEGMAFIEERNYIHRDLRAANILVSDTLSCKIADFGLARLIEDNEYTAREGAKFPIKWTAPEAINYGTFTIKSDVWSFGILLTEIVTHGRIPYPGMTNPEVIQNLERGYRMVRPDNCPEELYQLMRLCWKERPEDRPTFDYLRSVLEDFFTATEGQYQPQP

Broadly, the inhibition is how much of the control response was suppressed. For `Cc1ccc(NC(=O)c2cc(S(C)(=O)=O)n(-c3ccc(F)cc3)n2)cc1Nc1nccc(-c2cccnc2N)n1` [Ex13, N-(3-((4-(2-aminopyridin-3-yl)pyrimidin-2-yl)amino)-4-methylphenyl)-1-(4-fluorophenyl)-5-(methylsulfonyl)-1H-pyrazole-3-carboxamide], the inhibition at 5 µM was not below 95% in assay [1]; not below 95% in [2]; less than 79% in assay [3]; not below 95% in [4]; not below 95% in assay [5]; not below 95% in [6]. For the same compound, the inhibition at 5 µM is not below 95% in assay [7]; less than 79% in assay [8]; less than 79% in [9]; less than 79% in assay [10]; less than 79% in [11]; less than 79% in assay [12]. For the same compound, the inhibition at 5 µM in [13] was less than 79%; in [14], not below 95%; in [15] it was less than 79%; in assay [16] it was less than 79%; in assay [17], less than 79%; in assay [18] it was less than 79%. The inhibition at 5 µM in assay [19] was less than 79%; in assay [20], less than 79%; in [21] it was 90 to 94%.

In the case of `Cc1ccc(NC(=O)c2cc(S(C)(=O)=O)n(-c3ccc(F)cc3)n2)cc1C#Cc1cnc2cccnn12` [Ex14, 1-(4-fluorophenyl)-N-(3-(imidazo[1,2-b]pyridazin-3-ylethynyl)-4-methylphenyl)-5-(methylsulfonyl)-1H-pyrazole-3-carboxamide], the inhibition at 5 µM in assay [1] is not below 95%; in assay [2] it was not below 95%; in assay [3], 80 to 89%; in [4] it was 90 to 94%; in [5], not below 95%; in assay [6], 90 to 94%. Further, the inhibition at 5 µM in [7] was not below 95%; in assay [8], less than 79%; in assay [9], less than 79%; in assay [10] it was less than 79%; in assay [11], less than 79%; in assay [12] it was less than 79%. Besides, the inhibition at 5 µM in [13] was 80 to 89%; in [14] it was 90 to 94%; in assay [15], less than 79%; in [16], less than 79%; in assay [17], less than 79%; in assay [18], 90 to 94%. For the same compound, the figures for the inhibition at 5 µM in [19], in assay [20] and in assay [21] were 80 to 89%, less than 79% and not below 95%, respectively.

Consider `CCOC(=O)Nc1cn2nc(Nc3cc(NC(=O)c4cc(S(C)(=O)=O)n(-c5ccc(F)cc5)n4)ccc3C)ccc2n1` [Ex15, ethyl (6-((5-(1-(4-fluorophenyl)-5-(methylsulfonyl)-1H-pyrazole-3-carboxamido)-2-methylphenyl)amino)imidazo[1,2-b]pyridazin-2-yl)carbamate], for which the inhibition at 5 µM in [1] is not below 95%; in assay [2], not below 95%; in assay [3] it was less than 79%; in assay [4], not below 95%; in [5], less than 79%; in [6], not below 95%. The inhibition at 5 µM is not below 95% in assay [7]; 80 to 89% in assay [8]; less than 79% in assay [9]; not below 95% in assay [10]; less than 79% in assay [11]; less than 79% in assay [12]. The inhibition at 5 µM in [13] was not below 95%; in assay [14] it was not below 95%; in [15] it was not below 95%; in [16] it was less than 79%; in assay [17] it was 90 to 94%; in assay [18], 80 to 89%. The inhibition at 5 µM in assay [19] was 80 to 89%; in assay [20], less than 79%; in [21] it was not below 95%.
